In general, IC50 refers to the concentration at which inhibition is half-maximal. The low end stands for greater potency, the high end for weaker potency. One may read the Kd as the equilibrium constant for the complex coming apart. Read a high Kd as weaker binding.

For experiment [1], the target named is T1, SOD1-Derlin-1 complex (Flag-SOD1 / Derlin-1-HA) (Homo sapiens, UniProt P00441, G94A).
T1 construct: Flag-SOD1 G93A and Derlin-1-HA co-expressed in HEK293A; complex purified on anti-Flag beads for the in vitro assay, or assayed in cells; all tags kept; with Derlin-1
T1 sequence (P00441 2-154 G94A): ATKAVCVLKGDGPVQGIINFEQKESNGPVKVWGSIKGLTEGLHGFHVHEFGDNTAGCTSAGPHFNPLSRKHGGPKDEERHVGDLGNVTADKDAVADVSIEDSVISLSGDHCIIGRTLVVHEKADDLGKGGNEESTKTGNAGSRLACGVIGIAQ
T1 sequence (Q9BUN8 2-251 partner): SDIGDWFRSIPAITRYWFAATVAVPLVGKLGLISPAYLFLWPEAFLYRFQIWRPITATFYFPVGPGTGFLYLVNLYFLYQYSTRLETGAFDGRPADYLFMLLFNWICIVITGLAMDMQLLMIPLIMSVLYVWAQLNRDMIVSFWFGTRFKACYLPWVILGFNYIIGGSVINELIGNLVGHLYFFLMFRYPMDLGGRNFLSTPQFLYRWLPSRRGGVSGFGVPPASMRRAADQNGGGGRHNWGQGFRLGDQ
Nature of the experiment: in vitro co-immunoprecipitation of purified complex, immunoblot. The experiment is classed as biochemical.

The target in experiment [2] is T2, SOD1 (GST-SOD1 / Flag-SOD1; WT or G93A) (Homo sapiens, UniProt P00441, G94A).
T2 construct: full length; GST fusion from pGEX-6P-1 in E. coli BL21, eluted with glutathione (tag apparently kept), loaded with CuSO4 and ZnCl2 (described for activity assay); Flag-tagged in HEK293A for pull-down
T2 sequence (P00441 2-154 G94A): as the sequence (P00441 2-154 G94A) above
Briefly: fluorescence polarization (intrinsic fluorescence of compound). Format: binding. (In fluorescence polarisation assays a small probe gives low polarisation when free and higher when bound to something large.)

`Nc1c(C(=O)Nc2ccc(Cl)cc2Cl)sc2nc(-c3cccnc3)ccc12` [#56-26] returned an IC50 in experiment [1] of 6.2 µM.

As to `Nc1c(C(=O)Nc2ccc3c(c2)OCO3)sc2nc(-c3cccnc3)ccc12` [#56], inhibition in experiment [1] was half-maximal at 23.3 µM (IC50).

In experiment [2], `Nc1c(C(=O)Nc2ccc(Br)cc2Br)sc2nc(-c3cccnc3)ccc12` [#56-20] gave a Kd of 81.1 µM. The same compound registered an IC50 in experiment [1] of 7.11 µM.

The record behind these values is article PMC6039432, “A small-molecule inhibitor of SOD1-Derlin-1 interaction ameliorates pathology in an ALS mouse model” (Nature Communications, 2018).
